Measurements taken from patent publication US8557836B2 (priority 2008, dated 2013).

Each molecule was assayed against full length Udorn AM2 protein (Influenza A virus, UniProt P0DOF5) (assay: cell-based). Conditions: 100 μM.
Format: cell-based, influenza virus A/Udorn/72

full length Udorn AM2 protein, sequence (P0DOF5 whole entry, looked up): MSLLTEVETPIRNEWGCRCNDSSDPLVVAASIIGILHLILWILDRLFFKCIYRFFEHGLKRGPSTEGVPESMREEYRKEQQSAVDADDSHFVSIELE

**Q.** With `c1ncc(CN2CCC3(CCCCC3)CC2)[nH]1` [Compound 7, 3-((1H-imidazol-4-yl)methyl)-3-azaspiro[5.5]undecane] as the molecule, how does the “inhibition of AM2 (in words)” value read?
**A.** moderate inhibition

**Q.** `c1c[nH]c(CN2CCC3(CCCCC3)CC2)n1` [Compound 8, 3-((1H-imidazol-2-yl)methyl)-3-azaspiro[5.5]undecane] was tested. Which “inhibition of AM2 (in words)” value did it give?
**A.** moderate inhibition

Same assay, conditions: pH 5.5, read-out: AM2 Remaining Activity After 100 μM inhibition

**Q.** Which remaining activity at 100 µM does the source give for `C1CCC2(CC1)CCN(C1=NCCN1)CC2` [BL-1743, 3-(4,5-dihydro-1H-imidazol-2-yl)-3-azaspiro[5,5]undecane hydroiodide, reference compound] here?
**A.** 25%

**Q.** With `C1CCC2(CC1)CCN(CC1CC1)CC2` [Compound 1, 3-(cyclopropylmethyl)-3-azaspiro[5,5]undecane] as the molecule, how does the remaining activity at 100 µM read?
**A.** 100%

**Q.** Which remaining activity at 100 µM does the source give for `C1CCC2(CC1)CCN(CC1CCCC1)CC2` [Compound 2, 3-(cyclopentylmethyl)-3-azaspiro[5,5]undecane] here?
**A.** 100%

**Q.** For `c1cc(CN2CCC3(CCCCC3)CC2)cs1` [Compound 3, 3-(thiophen-3-ylmethyl)-3-azaspiro[5,5]undecane], which remaining activity at 100 µM is on record?
**A.** 90%

**Q.** For `Cn1cc(CN2CCC3(CCCCC3)CC2)cn1` [Compound 4, 3-((1-methyl-1H-pyrazol-4-yl)methyl)-3-azaspiro[5,5]undecane], which remaining activity at 100 µM is on record?
**A.** 100%

**Q.** Which remaining activity at 100 µM does the source give for `Cc1cc(CN2CCC3(CCCCC3)CC2)no1` [Compound 5, 3-(3-azaspiro[5,5]undecan-3-ylmethyl)-5-methylisoxazole] here?
**A.** 100%

**Q.** `c1ccc(CN2CCC3(CCCCC3)CC2)nc1` [Compound 6, 3-(pyridin-2-ylmethyl)-3-azaspiro[5,5]undecane] was tested. Which remaining activity at 100 µM did it give?
**A.** 100%

**Q.** How did the remaining activity at 100 µM turn out when `c1ncc(CN2CCC3(CCCCC3)CC2)[nH]1` [Compound 7, 3-((1H-imidazol-4-yl)methyl)-3-azaspiro[5.5]undecane] was run?
**A.** 70%

**Q.** `c1c[nH]c(CN2CCC3(CCCCC3)CC2)n1` [Compound 8, 3-((1H-imidazol-2-yl)methyl)-3-azaspiro[5.5]undecane] was tested. Which remaining activity at 100 µM did it give?
**A.** 49%

**Q.** With `CC1(C)CCNCC1` [Compound 19, 4,4-dimethylpiperidinium chloride] as the molecule, how does the remaining activity at 100 µM read?
**A.** 75%

**Q.** How did the remaining activity at 100 µM turn out when `CCC1(C)CCNCC1` [Compound 20, 4-ethyl-4-methylpiperidinium chloride] was run?
**A.** 87%
